Reference: US20160206577A1, “NOVEL DRUG FORMULATION” (FAB PHARMA SAS, priority 2013, published 2016)

Tests used:
MSSA and MRSA infections = conditions: murine model; cited from earlier work
[1] = Particle size of suspensions made with concentrated aqueous PVP (solvent evaporation attempts); assay type: physicochemical; conditions: low molecular weight PVP (3,500 Da), concentrated aqueous polymer solution
Source text: Alternative solvent evaporation systems such as oil-in-oil and water-in-oil systems were investigated, however large particle sizes were still observed. In an attempt to reduce solvent dissolution into the continuous phase of the oil-in-water system, the aqueous phase was saturated with different salts to reduce solvent solubility. However, little benefit was achieved through the use of the saturated salt systems, as large crystals were still observed. It was thought that the use of a concentrated aqueous polymer solution would disrupt or prevent crystal formation. Multiple molecular weights and concentrations of PVP were studied. […] In the expectation of further reducing the particle size (to <1 μm i.e. to nanoparticulate form) further surfactants were added. However, by contrast, the addition of further surfactants to the solution yielded large size growth of particles.

[2] = cited from earlier work
[3] = tested on: Staphylococcus aureus MSSA, MRSA, VISA and VRSA strains; conditions: pathogenic MSSA; cited from earlier work
[4] = tested on: methicillin-resistant Staphylococcus aureus (MRSA 300); assay: Systemic mouse infection model against MRSA; assay type: in vivo; conditions: CD-1 mice, combined n=3 studies
Method: (§1) The aim of this study was to compare the in vivo efficacy of the prior art historical formulation with a novel nanosuspension of the present invention using a murine systemic infection model against both a susceptible (MSSA) and a methicillin resistant (MRSA) strains of S. aureus.
(§2) Three independent studies were run against each isolate (one MSSA and one MRSA), the data for the three studies combined and analysis performed. Bacterial isolates were grown to log phase in a liquid culture. Bacteria were diluted in 8% mucin to a concentration to achieve at least 90% mortality within 48 hours after infection. Six CD-1 female mice, 18-20 grams, were allocated per compound (I) concentration and were infected with 0.5 ml of bacterial suspension via intraperitoneal injection. Five minutes post-infection, mice were treated via intravenous administration. A nanosuspension of the invention (prepared according to Example 3) was prepared fresh just prior to single IV dose delivery at 50, 100 and 200 mg/kg (dosage of compound (I)). The prior art historical formulation of compound (I) (formulated at 10 mg/mL in 20% HPBCD, and 1% glucose) and vancomycin (Sigma Aldrich) were also administered IV at one dose and were used as comparators. Infection control mice were dosed with saline. Survival was assessed for 48 hours post infection. Date of death was recorded and a Probit analysis was performed to determine the PD50 (50% protective dose).

[5] = tested on: methicillin-susceptible Staphylococcus aureus (MSSA); assay: Systemic mouse infection model against MSSA; assay type: in vivo; conditions: CD-1 mice, combined n=3 studies
Method: as §1, §2

[6] = commercial intravenous formulations; cited from earlier work
[7] = single IV dose 50 mg/kg, 48 h post infection
[8] = single IV dose, Probit analysis

CCc1cc(O)c(Oc2ccc(C(N)=O)cc2F)cc1F [compound (I), 4-(4-ethyl-5-fluoro-2-hydroxyphenoxy)-3-fluorobenzamide]
In vivo activity (MSSA and MRSA infections): active in vivo
Particle size of suspension [1]: 4.4 μm
Water-solubility [2]: relatively poor
Concentration at which compound (I) may be formulated ([2]; prior art historical formulation (water, glucose monohydrate, HPBCD)): up to 11.3 mg/mL
In vitro activity [3]: highly active

CN[C@H](CC(C)C)C(=O)N[C@H]1C(=O)N[C@@H](CC(N)=O)C(=O)N[C@H]2C(=O)N[C@H]3C(=O)N[C@H](C(=O)N[C@H](C(=O)O)c4cc(O)cc(O)c4-c4cc3ccc4O)[C@H](O)c3ccc(c(Cl)c3)Oc3cc2cc(c3O[C@@H]2O[C@H](CO)[C@@H](O)[C@H](O)[C@H]2O[C@H]2C[C@](C)(N)[C@H](O)[C@H](C)O2)Oc2ccc(cc2Cl)[C@H]1O [Vancomycin, vancomycin]
% survival [4, 7]: 100%
Survival [4, 7]: 18/18
PD50 (95% C.I.) [4, 8]: <50 mg/kg
% survival [5, 7]: 100%
Survival [5, 7]: 18/18
PD50 (50% protective dose) [5, 8]: <50 mg/kg

CC(O)COC[C@H]1O[C@@H]2O[C@H]3[C@H](O)[C@@H](O)[C@@H](O[C@H]4[C@H](O)[C@@H](O)[C@@H](O[C@H]5[C@H](O)[C@@H](O)[C@@H](O[C@H]6[C@H](O)[C@@H](O)[C@@H](O[C@H]7[C@H](O)[C@@H](O)[C@@H](O[C@H]8[C@H](O)[C@@H](O)[C@@H](O[C@H]1[C@H](O)[C@H]2O)O[C@@H]8COCC(C)O)O[C@@H]7COCC(C)O)O[C@@H]6COCC(C)O)O[C@@H]5COCC(C)O)O[C@@H]4COCC(C)O)O[C@@H]3COCC(C)O (stereo partly drawn) [HPBCD, hydroxypropyl-beta-cyclodextrin]
Maximum reported safe daily dose [6]: 16 g/day
